Key:
[1] = compared with morphine; cited from earlier work
[2] = target: FABP3 (Homo sapiens (Human), UniProt P05413); experiment: DAUDA, ANS or NBD-stearate fluorescence displacement binding assay, FABP3; details: average ± S.E. of at least three independent experiments
[3] = target: FABP7 (Homo sapiens (Human), UniProt O15540); experiment: DAUDA, ANS or NBD-stearate fluorescence displacement binding assay, FABP7; details: average ± S.E. of at least three independent experiments
[4] = target: T1, FABP5 (Homo sapiens (Human), UniProt Q01469); experiment: DAUDA, ANS or NBD-stearate fluorescence displacement binding assay, FABP5; details: average ± S.E. of at least three independent experiments
Description: FABP5 (30 μg), NBD-stearate (1 μM), and a competitor test compound were incubated in 30 mM Tris-HCl, 100 mM NaCl buffer (pH 7.6). […] The initial assay was run with buffer (30 mM Tris-HCl buffer), negative controls (buffer and NBD-stearate), positive controls (buffer, NBD-stearate, FABP5), and experimental wells with a variable test compound added (arachidonic acid or one of the 48 test compounds) at 10 μM. […] GraphPad Prism was also used to determine the Ki of these select competitors from the equation Ki=IC50/(1+([NBD-stearate]/Kd)). The Kd of NBD-stearate for FABP5 had been determined previously through incubating FABP5 with increasing concentrations of NBD-stearate.
Determination of Ki was derived from DAUDA or NBD-stearate displacement assays (see Table 1).

[5] = target: T1, FABP5; details: read-out: Kd of NBD-stearate for FABP5; cited from earlier work
[6] = test system: formalin induced pain; details: formalin induced mouse models; cited from earlier work

Chain of FABP7 (O15540 whole entry, species assumed): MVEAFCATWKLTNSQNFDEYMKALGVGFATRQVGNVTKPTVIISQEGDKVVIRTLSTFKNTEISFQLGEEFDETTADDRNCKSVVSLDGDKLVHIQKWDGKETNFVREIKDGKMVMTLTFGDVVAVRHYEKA
Chain of FABP3 (P05413 whole entry, species assumed): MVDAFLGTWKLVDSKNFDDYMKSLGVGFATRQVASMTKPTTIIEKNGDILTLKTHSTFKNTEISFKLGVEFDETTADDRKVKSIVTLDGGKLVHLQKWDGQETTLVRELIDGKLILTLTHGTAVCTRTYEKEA
T1 sequence (Q01469 whole entry, species assumed): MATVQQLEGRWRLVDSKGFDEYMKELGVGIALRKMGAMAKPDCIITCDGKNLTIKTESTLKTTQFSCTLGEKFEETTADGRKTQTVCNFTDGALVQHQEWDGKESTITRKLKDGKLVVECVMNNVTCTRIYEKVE

Row | Ki [2] [nM] | Ki [3] [nM] | Ki [4] [nM] | Compound | antinociceptive properties [1] | Kd [5] [nM] | antinociceptive effect in early and late stage pain [6]
1 | – | – | – | COc1cc([C@H]2[C@H](C(=O)O[C@@H]3C[C@@H]4[C@@H](CN(C)C[C@@H]4C)[C@@H]3C)[C@H](c3ccc(O)c(OC)c3)[C@H]2C(=O)O[C@@H]2C[C@@H]3[C@@H](CN(C)C[C@@H]3C)[C@@H]2C)ccc1O [(−)-incarvillateine] | antinociceptive properties on the same level as morphine | – | –
2 | > 10000 | – | – | O=C(O)[C@H]1[C@@H](c2ccccc2)[C@H](C(=O)OCc2ccccc2)[C@@H]1c1ccccc1 [Compound 3a, Benzyl α-2,4-diphenylcyclobutane-1,3-dicarboxylate] | – | – | –
3 | > 10000 | 1140 ± 60 | 2150 ± 100 | COc1ccc(COC(=O)[C@H]2[C@@H](c3ccccc3)[C@H](C(=O)O)[C@@H]2c2ccccc2)cc1 [Compound 3b, 4-Methoxybenzyl α-2,4-diphenylcyclobutane-1,3-dicarboxylate] | – | – | –
4 | > 10000 | 1650 ± 210 | 2420 ± 180 | O=C(O)[C@H]1[C@H](c2ccccc2)[C@H](C(=O)OCc2ccc(F)cc2)[C@H]1c1ccccc1 [Compound 3c, 4-Fluorobenzyl α-2,4-diphenylcyclobutane-1,3-dicarboxylate] | – | – | –
5 | > 10000 | 1250 ± 30 | 1580 ± 160 | O=C(O)[C@H]1[C@H](c2ccccc2)[C@H](C(=O)OCc2ccc(Br)cc2)[C@H]1c1ccccc1 [Compound 3d, 4-Bromobenzyl α-2,4-diphenylcyclobutane-1,3-dicarboxylate] | – | – | –
6 | 1180 ± 100 | 940 ± 340 | 1340 ± 210 | O=C(O)[C@H]1[C@H](c2ccccc2)[C@H](C(=O)Oc2ccccc2I)[C@H]1c1ccccc1 [Compound 3e] | – | – | –
7 | 9750 ± 790 | 740 ± 170 | – | O=C(O)[C@H]1[C@H](c2ccccc2)[C@H](C(=O)Oc2cccc(-c3ccccc3)c2)[C@H]1c1ccccc1 [Compound 3h, Biphenyl-3-yl α-2,4-Diphenylcyclobutane-1,3-dicarboxylate] | – | – | –
8 | 3930 ± 160 | 2270 ± 30 | 2520 ± 360 | O=C(O)[C@H]1[C@H](c2ccccc2)[C@H](C(=O)Oc2ccc(-c3ccccc3)cc2)[C@H]1c1ccccc1 [Compound 3i] | – | – | –
9 | 3520 ± 530 | 540 ± 180 | 1590 ± 430 | O=C(O)[C@H]1[C@H](c2ccccc2)[C@H](C(=O)Oc2ccccc2-c2ccccc2O)[C@H]1c1ccccc1 [Compound 3j, 2′-HO-biphenyl-2-yl α-2,4-diphenylcyclobutane-1,3-dicarboxylate] | – | – | –
10 | 2980 ± 850 | 540 ± 20 | – | O=C(O)[C@H]1[C@H](c2ccccc2)[C@H](C(=O)Oc2ccc(Cl)c(Cl)c2Cl)[C@H]1c1ccccc1 [Compound 3k] | – | – | –
11 | > 10000 | 2410 ± 90 | – | O=C(O)[C@H]1[C@H](c2ccccc2)[C@H](C(=O)OC2Cc3ccccc3C2)[C@H]1c1ccccc1 [Compound 3m, Indan-2-yl α-2,4-diphenylcyclobutane-1,3-dicarboxylate] | – | – | –
12 | 4940 ± 310 | 1030 ± 220 | 3920 ± 750 | C#Cc1cccc2c(OC(=O)[C@H]3[C@@H](c4ccccc4)[C@H](C(=O)O)[C@@H]3c3ccccc3)cccc12 [Compound 3p, 5-Ethynylnaphth-1-yl α-2,4-diphenylcyclobutane-1,3-dicarboxylate] | – | – | –
13 | > 10000 | 2700 ± 620 | 2560 ± 160 | O=C(O)[C@H]1[C@H](c2ccccc2)[C@H](C(=O)OCC2c3ccccc3-c3ccccc32)[C@H]1c1ccccc1 [Compound 3q, 9-Fluorenylmethyl α-2,4-diphenylcyclobutane-1,3-dicarboxylate] | – | – | –
14 | > 10000 | – | > 10000 | O=C(O)[C@H]1[C@@H](c2ccccc2)[C@H](C(=O)OCC(F)(F)F)[C@@H]1c1ccccc1 [Compound 3r, 2,2,2-Trifluoroethyl α-2,4-diphenylcyclobutane-1,3-dicarboxylate] | – | – | –
15 | > 10000 | 500 ± 110 | – | O=C(O)C1C(c2ccccc2)C(C(=O)OC2CCCCC2)C1c1ccccc1 (stereo not drawn) [Compound 3s, Cyclohexyl α-2,4-diphenylcyclobutane-1,3-dicarboxylate] | – | – | –
16 | > 10000 | 1060 ± 70 | > 10000 | CCOCCOCCOCCn1cc(-c2cccc(OC(=O)[C@H]3[C@@H](c4ccccc4)[C@H](C(=O)O)[C@@H]3c3ccccc3)c2)nn1 [Compound 3t] | – | – | –
17 | 1060 ± 190 | 2120 ± 190 | > 10000 | COc1cc([C@H]2[C@H](C(=O)O)[C@H](c3ccc(O)c(OC)c3)[C@H]2C(=O)Oc2cccc3ccccc23)ccc1O [Compound 4a, 1-Naphthyl α-2,4-di(3-methoxy-4-hydroxy)cyclobutane-1,3-dicarboxylate] | – | – | –
18 | – | – | > 10000 | O=C(O)[C@H]1[C@@H](c2ccc(O)cc2)[C@H](C(=O)Oc2cccc3ccccc23)[C@@H]1c1ccc(O)cc1 [Compound 4d] | – | – | –
19 | 400 ± 80 | 400 ± 30 | – | COc1ccccc1C1C(C(=O)O)C(c2ccccc2OC)C1C(=O)O[C@@H]1CCCC[C@H]1c1ccccc1 (stereo partly drawn) [Compound 4e, (1R,2S)-2-Phenylcyclohexyl α-2,4-di(2-methoxylphenyl)cyclobutane-1,3-dicarboxylate] | – | – | –
20 | > 10000 | > 10000 | – | O=C(O)[C@H]1[C@H](c2ccccc2Cl)[C@H](C(=O)OC2CCCC[C@H]2c2ccccc2)[C@H]1c1ccccc1Cl (stereo partly drawn) [Compound 4f, (1R,2S)-2-Phenylcyclohexyl α-2,4-di(2-chlorophenyl)cyclobutane-1,3-dicarboxyliate] | – | – | –
21 | > 10000 | – | – | O=C(O)[C@H]1[C@H](c2c(Cl)cccc2Cl)[C@H](C(=O)OC2CCCC[C@H]2c2ccccc2)[C@H]1c1c(Cl)cccc1Cl (stereo partly drawn) [Compound 4g, (1R,2S)-2-Phenylcyclohexyl α-2,4-di(2,6-dichlorophenyl)cyclobutane-1,3-dicarboxylate] | – | – | –
22 | > 10000 | > 10000 | – | O=C(O)C1C(c2ccccc2Br)C(C(=O)O[C@@H]2CCCC[C@H]2c2ccccc2)C1c1ccccc1Br (stereo partly drawn) [Compound 4h, (1R,2S)-2-Phenylcyclohexyl α-2,4-di(2-bromophenyl)cyclobutane-1,3-dicarboxylate] | – | – | –
23 | > 10000 | > 10000 | – | COc1ccccc1[C@H]1[C@H](C(=O)O)[C@H](c2ccccc2OC)[C@H]1C(=O)OCC1c2ccccc2-c2ccccc21 [Compound 4j, 9-Fluorenylmethyl α-2,4-di(2-methoxylphenyl)cyclobutane-1,3-dicarboxylate] | – | – | –
24 | > 10000 | 3540 ± 770 | – | O=C(O)[C@H]1[C@H](c2ccccc2Cl)[C@H](C(=O)OCC2c3ccccc3-c3ccccc32)[C@H]1c1ccccc1Cl [Compound 4k, 9-Fluorenylmethyl α-2,4-di(2-chlorophenyl)cyclobutane-1,3-dicarboxylate] | – | – | –
25 | – | – | – | CCCCCCC(CCCCCCCCCCC(=O)O)N(C)c1ccc([N+](=O)[O-])c2nonc12 (centres unmarked) [NBD-stearate] | – | 160 | –
26 | – | – | – | O=C(O)C1C(c2ccccc2)C(C(=O)O)C1c1ccccc1 (stereo not drawn) [α-truxillic acid, α-2,4-diphenylcyclobutene-1,3-dicarboxylic Acid] | – | – | best antinociceptive agent in both early and late stage pain

Reference: patent publication US10968163B2, “Alpha-truxillic acid derivatives and pharmaceutical compositions thereof” (The Research Foundation for the State University of New York, priority 2016, dated 2021)
